Inhibition data for 49 compounds are collected here from publication PMC11855827, “High-Throughput Screening of Five Compound Libraries for Anthelmintic Activity and Toxicity Leads to the Discovery of Two Flavonoid Compounds” (International Journal of Molecular Sciences, 2025).

This test has as its system C. elegans. The test can be described thus: microbe, parasite or virus in culture. The following applies: Caenorhabditis elegans.
[1] abbreviates: 0 h, read-out: Percentage of motility inhibition 0 h, Table S2, C. elegans SS assay, 110 μM, 0 h, averages of 4 data points.
[2] abbreviates: 24 h, read-out: Percentage of motility inhibition 24 h, Table S2, C. elegans SS assay, 110 μM, 24 h, averages of 4 data points.
The mark [3] stands for this setting: 0 h, read-out: Percentage of motility inhibition 0 h.
Where [4] appears, read: 24 h, read-out: Percentage of motility inhibition 24 h.

Counter-ions that a name gives are not always drawn. Like-named read-outs stand apart in the source and are kept apart here.

For orientation: inhibition means how much of the control response was suppressed. Consider `CC(CC(=O)C[C@@H](C)[C@H]1CC(=O)[C@@]2(C)C3=C(C(=O)C[C@]12C)[C@@]1(C)CC[C@H](O)C(C)(C)[C@@H]1C[C@@H]3O)C(=O)O` (stereo partly shown) [Ganoderic acid B], for which the inhibition at 110 µM under setting [1] amounted to 0% and the inhibition at 110 µM under setting [2] is 20%.
In the case of `Oc1cc(Cl)ccc1Oc1ccc(Cl)cc1Cl` [Triclosan], the inhibition at 110 µM is 45% under setting [1] and 60% under setting [2].
`COC(=O)Nc1nc2ccccc2[nH]1` [Carbendazim]: the inhibition at 110 µM under setting [1] is 18% and the inhibition at 110 µM under setting [2] was determined as 7%.
For `CN1CC[C@]23C(=O)C[C@H]4C(=CCO[C@H]5CC(=O)N(c6c(O)cccc62)[C@H]3[C@H]54)C1` [Vomicine] the same measures were 0% and 0%.
Consider `Cc1cn([C@H]2O[C@@H](CO)[C@H](O)[C@H]2F)c(=O)[nH]c1=O` [Clevudine], for which the inhibition at 110 µM amounted to 2% under setting [1] and 0% under setting [2].
`Oc1cc(O)c2c(c1)O[C@@H](c1cc(O)c(O)c(O)c1)[C@H](O)C2` [(‐)‐Gallocatechin]: the inhibition at 110 µM turned out to be 43% under setting [3] and 5% under setting [4].
In the case of `CC(C)(C)C(=O)OCOP(=O)(COCCn1cnc2c(N)ncnc21)OCOC(=O)C(C)(C)C` [Adefovir dipivoxil], the inhibition at 110 µM runs as follows: under setting [1], 28%; under setting [2], 14%.
For `COc1cc2c(cc1O)-c1cc3ccc(OC)c(OC)c3c[n+]1CC2` [Columbamine] the same measures were 1% and 0%.
Regarding `C/C=C1\[C@H]2C=C(C)C[C@]1(N)c1ccc(=O)[nH]c1C2` [(‐)‐Huperzine A], the inhibition at 110 µM was found to be 0% under setting [1] and 4% under setting [2].
With `C[C@H]1[C@H](C)CC[C@]2(C(=O)O)CC[C@]3(C)C(=CC[C@@H]4[C@@]5(C)CCC(=O)C(C)(C)[C@@H]5CC[C@]43C)[C@H]12` [Ursonic acid], the inhibition at 110 µM is, setting by setting: under setting [3], 18%; under setting [4], 23%.
For `[H]/N=C(\N/C(=N/[H])Nc1ccc(Cl)cc1)NC(C)C` [Proguanil], the inhibition at 110 µM under setting [1] was found to be 36% and the inhibition at 110 µM under setting [2] worked out at 6%.
As to `C=C(C)[C@H](CC=C(C)C)Cc1c(O)cc(O)c2c1O[C@H](c1ccc(O)cc1O)CC2=O` [Sophoraflavanone G], the inhibition at 110 µM was found to be 55% under setting [3] and 4% under setting [4].
As to `OC[C@H]1O[C@@H](O[C@H]2[C@H](O)[C@@H](O)C(O)O[C@@H]2CO)[C@H](O)[C@@H](O)[C@H]1O` (mixture of isomers) [Lactose], the inhibition at 110 µM runs as follows: under setting [3], 54%; under setting [4], 10%.
Take `O=c1ccc2ccccc2o1` [Coumarin]: the inhibition at 110 µM runs as follows: under setting [1], 12%; under setting [2], 8%.
As to `CC1(C)[C@H](C(=O)O)N2C(=O)C[C@H]2S1(=O)=O` [Sulbactam], the inhibition at 110 µM is, setting by setting: under setting [3], 1%; under setting [4], 9%.
As for `OC[C@H]1O[C@@H](Oc2ccc(O)cc2)[C@H](O)[C@@H](O)[C@@H]1O` [Arbutin], the inhibition at 110 µM under setting [1] came to 0% and the inhibition at 110 µM under setting [2] was 1%.
As to `CC(=O)O[C@]12CCC(C(=O)O)=CC[C@]13CC[C@H]2[C@@](C)(/C=C/C=C(\C)C(=O)O)OC3=O` [Pseudolaric Acid C2], the inhibition at 110 µM worked out at 0% under setting [1] and 0% under setting [2].
Consider `COc1ccc(-c2cc(=O)c3c(O)c(OC)c(O)c(OC)c3o2)cc1` [Nevadensin], for which the inhibition at 110 µM was found to be 39% under setting [1] and 0% under setting [2].
For the compound `c1cncc([C@@H]2CCCCN2)c1` [Anabasine], the inhibition at 110 µM under setting [1] is 0% and the inhibition at 110 µM under setting [2] stood at 0%.
For the compound `CC(C)(C)C(O)(CCc1ccc(Cl)cc1)Cn1cncn1` (stereo not shown) [Tebuconazole], the inhibition at 110 µM is 32% under setting [1] and 1% under setting [2].
For `Oc1ccc(Cl)cc1Cc1cc(Cl)ccc1O` [Dichlorophen], the inhibition at 110 µM under setting [1] was found to be 15% and the inhibition at 110 µM under setting [2] was found to be 0%.
As for `O=C1C[C@@H](c2ccc(O)c(O)c2)Oc2cc(O)cc(O)c21` [Eriodictyol], the inhibition at 110 µM is, setting by setting: under setting [1], 0%; under setting [2], 14%.
As to `Oc1c(I)cc(I)c2cccnc12` [Diiodohydroxyquinoline], the inhibition at 110 µM is, setting by setting: under setting [1], 38%; under setting [2], 40%.
Take `C[C@H](CCC(=O)O)[C@H]1CC[C@H]2[C@@H]3[C@H](O)C[C@@H]4C[C@H](O)CC[C@]4(C)[C@H]3C[C@H](O)[C@]12C` [Cholic acid]: the inhibition at 110 µM came out at 0% under setting [3] and 8% under setting [4].
For the compound `CC(C)OC(=O)[C@H](C)N[P@](=O)(OC[C@H]1O[C@@H](n2ccc(=O)[nH]c2=O)[C@](C)(F)[C@@H]1O)Oc1ccccc1` [PSI‐7977], the inhibition at 110 µM by setting is: under setting [1], 6%; under setting [2], 11%.
For `O=C(Nc1ccc(O)cc1)c1ccccc1O` [Osalmid] the same measures were 48% and 1%.
The matching figures for `O=c1[nH]cnc2c1ncn2[C@@H]1O[C@H](CO)[C@@H](O)[C@H]1O` [Inosine]: 34% and 10%.
Take `C[C@@H]1[C@H](O)[C@@H](C)/C=C/C=C/C=C/C=C/C=C/C=C/C=C/[C@H](O[C@@H]2O[C@H](C)[C@@H](O)[C@H](N)[C@@H]2O)C[C@@H]2O[C@](O)(C[C@@H](O)C[C@@H](O)[C@H](O)CC[C@@H](O)C[C@@H](O)CC(=O)O[C@H]1C)C[C@H](O)[C@H]2C(=O)O` [Amphotericin B]: the inhibition at 110 µM reads like this: under setting [1], 2%; under setting [2], 29%.
On to `O=C1/C(=C/c2ccc(O)c(O)c2)COc2cc(O)ccc21` [Sappanone A], for which the inhibition at 110 µM by setting is: under setting [1], 0%; under setting [2], 0%.
In the case of `O=C(/C=C/c1ccc(O)cc1)c1ccccc1` [4‐Hydroxychalcone], the inhibition at 110 µM runs as follows: under setting [1], 0%; under setting [2], 1%.
As for `COC(=O)C1=CC[C@@]23CC[C@@H]([C@@](C)(/C=C/C=C(\C)C(=O)O)OC2=O)[C@@]3(O)CC1` [Pseudolaric Acid C], the inhibition at 110 µM worked out at 31% under setting [1] and 42% under setting [2].
`Cc1c(O)c(C)c2c(c1O)C(=O)C[C@@H](c1ccc(O)cc1)O2` [Farrerol]: the inhibition at 110 µM runs as follows: under setting [3], 6%; under setting [4], 9%.
In the case of `CC(C)NCC(O)COc1cccc2ccccc12` (stereo not shown) [Propranolol, reference compound], the inhibition at 110 µM (0 h, read-out: Inhibition (%) 110 μM (0 h), C. elegans L4 motility, 110 μM, 0 h, mean ± SD of four experiments) was found to be 84%; the inhibition at 110 µM under setting [1] turned out to be 0%; the inhibition at 110 µM (24 h, read-out: Inhibition (%) 110 μM (24 h), C. elegans L4 motility, 110 μM, 24 h, mean ± SD of four experiments) turned out to be 35%; the inhibition at 110 µM under setting [2] came out at 0%.
As for `O=C(O)CCCCC1CCSS1` (stereo not drawn) [α-Lipoic Acid], the inhibition at 110 µM is, setting by setting: under setting [1], 9%; under setting [2], 3%.
With `O[C@H]1[C@H]2c3cc4c(cc3CN3CCC(=C[C@@H]1O)[C@H]23)OCO4` [Lycorine], the inhibition at 110 µM is 34% under setting [1] and 0% under setting [2].
With `CSCCC(N)C(=O)O` (racemic) [DL-Methionine], the inhibition at 110 µM runs as follows: under setting [1], 6%; under setting [2], 2%.
With `O=C(O)C1=CCCNC1` [Guvacine hydrochloride], the inhibition at 110 µM under setting [1] was found to be 0% and the inhibition at 110 µM under setting [2] came to 0%.
`Cc1ccc2c(Cl)cc(Cl)c(O)c2n1` [Chlorquinaldol]: the inhibition at 110 µM is, setting by setting: under setting [1], 19%; under setting [2], 38%.
For the compound `COC(=O)C1=CO[C@@H](O[C@@H]2O[C@H](CO)[C@@H](O)[C@H](O)[C@H]2O)[C@@H]2[C@@H](C)[C@@H](O)C[C@H]12` [Loganin], the inhibition at 110 µM stood at 11% under setting [1] and 15% under setting [2].
For the compound `[H]/N=C(\N/C(=N/[H])NCCCCCCNC(=N)NC(=N)Nc1ccc(Cl)cc1)Nc1ccc(Cl)cc1` [Chlorhexidine], the inhibition at 110 µM under setting [1] stood at 38% and the inhibition at 110 µM under setting [2] stood at 63%.
With `C=C(CC[C@@H](C(=O)O)[C@H]1[C@H](O)C[C@@]2(C)C3=C(CC[C@]12C)[C@@]1(C)CC[C@H](OC(C)=O)C(C)(C)[C@@H]1CC3)C(C)C` [Pachymic acid], the inhibition at 110 µM came out at 45% under setting [1] and 21% under setting [2].
For the compound `O=c1cc(-c2ccccc2)oc2ccccc12` [Flavone], the inhibition at 110 µM under setting [1] came to 0% and the inhibition at 110 µM under setting [2] was 5%.
`CC(C)[C@@H]1CC[C@@H](C)CC1=O` [Menthone]: the inhibition at 110 µM under setting [1] amounted to 17% and the inhibition at 110 µM under setting [2] came to 17%.
As to `C[C@@H]1CC[C@@]2(NC1)O[C@H]1C[C@H]3[C@@H]4CC=C5C[C@@H](O[C@@H]6O[C@H](CO)[C@@H](O[C@@H]7O[C@@H](C)[C@H](O)[C@@H](O)[C@H]7O)[C@H](O)[C@H]6O[C@@H]6O[C@@H](C)[C@H](O)[C@@H](O)[C@H]6O)CC[C@]5(C)[C@H]4CC[C@]3(C)[C@H]1[C@@H]2C` [Solamargine], the inhibition at 110 µM runs as follows: under setting [1], 0%; under setting [2], 0%.
Turning to `C=C1CC/C=C(\C)CC[C@@H]2[C@@H]1CC2(C)C` [β-Caryophyllene], the inhibition at 110 µM by setting is: under setting [1], 28%; under setting [2], 27%.
On to `CSCC[C@H](N)C(=O)O` [L-Methionine], for which the inhibition at 110 µM was 0% under setting [1] and 0% under setting [2].
In the case of `O=C(O)CCCC[C@@H]1SC[C@@H]2NC(=O)N[C@@H]21` [Biotin], the inhibition at 110 µM is 14% under setting [3] and 12% under setting [4].
On to `CNC1CCCN(c2c(F)cc3c(=O)c(C(=O)O)cn(C4CC4)c3c2OC)C1` (stereo not shown) [Balofloxacin], for which the inhibition at 110 µM by setting is: under setting [1], 0%; under setting [2], 20%.
As for `O=C1Nc2ccc(Cl)cc2[C@@](C#CC2CC2)(C(F)(F)F)O1` [Efavirenz], the inhibition at 110 µM under setting [1] was found to be 29% and the inhibition at 110 µM under setting [2] was 29%.
